These results are taken from ChEMBL document CHEMBL1909514, “Imidazo[2,1-b]thiazole guanylhydrazones as RSK2 inhibitors” (Eur J Med Chem, 2011).

Data set [1] has as its target T1, Ribosomal protein S6 kinase alpha-3 (Homo sapiens, UniProt P51812). In words: Inhibition of RSK2-mediated GSK3-beta Ser9 phosphorylation in TPA-induced human MCF7 cells at 10 nM pretreated for 30 mins by immunoblotting. In kind it is cell-based.
Data set [2] addresses T1, Ribosomal protein S6 kinase alpha-3. In words: Inhibition of RSK2-mediated GSK3alpha Ser21 phosphorylation in TPA-induced human MCF7 cells at 10 nM pretreated for 30 mins by immunoblotting. Format: cell-based.
For data set [3], the target named is T2, Aurora kinase A (Homo sapiens) (UniProt O14965).
T2 sequence (whole entry): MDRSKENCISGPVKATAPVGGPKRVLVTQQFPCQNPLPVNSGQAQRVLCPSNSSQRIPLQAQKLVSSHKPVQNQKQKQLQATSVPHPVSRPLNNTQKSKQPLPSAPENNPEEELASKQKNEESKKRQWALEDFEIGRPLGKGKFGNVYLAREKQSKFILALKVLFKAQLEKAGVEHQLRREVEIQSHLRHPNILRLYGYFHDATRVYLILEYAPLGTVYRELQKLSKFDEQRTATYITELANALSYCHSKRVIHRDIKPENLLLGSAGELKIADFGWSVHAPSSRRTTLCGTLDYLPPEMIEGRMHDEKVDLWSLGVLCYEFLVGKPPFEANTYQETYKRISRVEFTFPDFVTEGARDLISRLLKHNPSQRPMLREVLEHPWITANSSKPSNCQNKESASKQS
In words: Inhibition of Aurora kinase A assessed as inhibition of substrate phosphorylation using fluorescent peptide substrate up to 100 uM by microplate reader assay.

For data set [4], the target named is Serine/threonine-protein kinase Chk2 (Homo sapiens, UniProt O96017).
Description: Inhibition of CHK2 assessed as inhibition of substrate phosphorylation using fluorescent peptide substrate by microplate reader assay
The target of data set [5] is T3, Serine/threonine-protein kinase Chk1 (Homo sapiens, UniProt O14757).
T3 sequence (O14757 whole entry): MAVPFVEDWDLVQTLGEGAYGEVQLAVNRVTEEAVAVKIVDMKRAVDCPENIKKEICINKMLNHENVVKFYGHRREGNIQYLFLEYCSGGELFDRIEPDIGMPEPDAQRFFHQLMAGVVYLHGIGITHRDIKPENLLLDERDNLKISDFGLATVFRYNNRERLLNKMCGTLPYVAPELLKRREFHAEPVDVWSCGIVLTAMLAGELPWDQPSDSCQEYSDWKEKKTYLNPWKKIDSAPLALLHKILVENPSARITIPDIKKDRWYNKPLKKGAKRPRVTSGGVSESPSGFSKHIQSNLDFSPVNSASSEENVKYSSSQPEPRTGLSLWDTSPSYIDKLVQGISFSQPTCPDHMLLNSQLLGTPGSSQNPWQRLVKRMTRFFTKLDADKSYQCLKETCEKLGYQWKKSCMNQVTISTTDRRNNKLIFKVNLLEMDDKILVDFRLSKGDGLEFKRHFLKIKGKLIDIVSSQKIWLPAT
Description: Inhibition of CHK1 assessed as inhibition of substrate phosphorylation using fluorescent peptide substrate by microplate reader assay

In data set [6] the target is T1, Ribosomal protein S6 kinase alpha-3.
Description: Inhibition of RSK2 assessed as inhibition of substrate phosphorylation using fluorescent peptide substrate by microplate reader assay
The subject of another data set is MCF-10A. In words: Antiproliferative activity against human MCF10A cells assessed as reduction in cell viability after 48 hrs celltiter glo assay. Format: cell-based.
The subject of the next data set is MCF7. The experiment in a line: Antiproliferative activity against human MCF7 cells assessed as reduction in cell viability after 48 hrs celltiter glo assay. In kind it is functional, cell-based. On the technique in general: Cellular ATP, detected with luciferase, serves as a proxy for viable cell number.

Structures are written as SMILES. The source made the active and inactive calls. Unless noted, the calls are words filed in the database; no cut-off is given here. Bounds are passed on as bounds.

T1 sequence (P51812 whole entry): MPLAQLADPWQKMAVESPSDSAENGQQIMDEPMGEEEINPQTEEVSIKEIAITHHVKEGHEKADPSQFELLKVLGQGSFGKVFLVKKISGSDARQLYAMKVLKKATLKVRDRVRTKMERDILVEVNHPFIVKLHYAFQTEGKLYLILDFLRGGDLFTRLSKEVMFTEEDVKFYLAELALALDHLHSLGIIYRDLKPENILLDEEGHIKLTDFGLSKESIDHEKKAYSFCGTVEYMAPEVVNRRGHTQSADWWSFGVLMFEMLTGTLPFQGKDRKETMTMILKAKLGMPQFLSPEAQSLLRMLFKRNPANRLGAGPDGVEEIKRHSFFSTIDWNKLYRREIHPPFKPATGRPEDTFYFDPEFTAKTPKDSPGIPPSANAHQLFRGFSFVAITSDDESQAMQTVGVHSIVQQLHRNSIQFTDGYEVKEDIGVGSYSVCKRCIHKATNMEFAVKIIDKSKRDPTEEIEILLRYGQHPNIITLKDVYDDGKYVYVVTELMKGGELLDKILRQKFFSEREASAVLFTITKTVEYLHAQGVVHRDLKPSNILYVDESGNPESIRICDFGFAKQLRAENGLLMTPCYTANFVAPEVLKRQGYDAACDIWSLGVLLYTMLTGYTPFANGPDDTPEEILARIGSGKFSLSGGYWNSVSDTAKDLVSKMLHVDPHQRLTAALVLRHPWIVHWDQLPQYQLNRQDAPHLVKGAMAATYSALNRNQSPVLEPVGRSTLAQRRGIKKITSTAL
Sequence of Serine/threonine-protein kinase Chk2 (O96017 whole entry): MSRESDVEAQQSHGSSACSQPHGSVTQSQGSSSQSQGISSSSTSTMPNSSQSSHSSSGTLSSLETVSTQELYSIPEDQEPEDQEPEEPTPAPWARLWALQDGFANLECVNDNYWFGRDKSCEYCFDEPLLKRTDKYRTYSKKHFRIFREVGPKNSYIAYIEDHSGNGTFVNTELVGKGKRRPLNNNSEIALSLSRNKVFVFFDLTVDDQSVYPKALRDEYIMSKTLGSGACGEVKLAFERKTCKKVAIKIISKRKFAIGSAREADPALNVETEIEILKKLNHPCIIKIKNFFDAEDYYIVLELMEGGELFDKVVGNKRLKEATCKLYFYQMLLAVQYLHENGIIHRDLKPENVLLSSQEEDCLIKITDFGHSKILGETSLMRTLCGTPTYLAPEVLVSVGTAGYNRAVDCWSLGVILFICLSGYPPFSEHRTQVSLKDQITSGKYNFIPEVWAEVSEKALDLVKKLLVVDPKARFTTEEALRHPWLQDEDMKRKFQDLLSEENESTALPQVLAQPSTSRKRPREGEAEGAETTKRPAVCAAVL

As for `N=C(N)N/N=C/c1c(-c2ccc([N+](=O)[O-])cc2)nc2sc(Cl)cn12`, the inhibition in data set [1], in data set [2] and in data set [3] was 50% each time. Besides, the IC50 – broadly, the concentration needed to halve the response being measured – in data set [4] was 78.8 µM; in data set [5] it was > 100 µM; in data set [6] it was 0.97 µM.
In the case of `Cl.N=C(N)N/N=C/c1c(-c2ccc(Cl)c([N+](=O)[O-])c2)nc2sccn12`, the Activity entry with MCF-10A is listed as “Non-toxic”. Further, the result in the data set with MCF7 was Active. In addition, the IC50 was 81 µM in data set [4], > 100 µM in data set [5] and 3.13 µM in data set [6].
`Cl.N=C(N)N/N=C/c1c(-c2ccc(Cl)c([N+](=O)[O-])c2)nc2sc(Cl)cn12`: the Activity result in the data set on MCF-10A is reported as “Non-toxic”. Besides, the outcome in the data set on MCF7 was Active. Besides, the IC50 is 90 µM in data set [4], > 100 µM in data set [5] and 5.85 µM in data set [6].
Take `Cl.N=C(N)N/N=C\c1c(-c2ccc([N+](=O)[O-])cc2)nc2sc(F)cn12`: the inhibition in data set [1] and in data set [2] was 50% throughout. In the data set on MCF-10A, the Activity entry is listed as “Non-toxic”. Also, the result in the data set on MCF7 was Active. Further, in data set [3], the inhibition (usually how much of the control response was suppressed) was “inactive”. Besides, the IC50 in data set [4] was 56.5 µM; in data set [5] it was > 100 µM; in data set [6], 2.15 µM.
